# Data as given in patent publication US9211310B2, “Use of a Chinese medicine composition in preparing medicaments for treating secondary prevention of myocardial infarction” (TASLY PHARMACEUTICAL GROUP CO., LTD, priority 2010, dated 2015).
# System: patients after acute myocardial infarction
# Experiment: Life quality, Seattle Angina Questionnaire (SAQ), same clinical trial
# Format: in vivo, human
# Conditions: PP
# Excerpt: 3508 patients who were in accordance with the diagnostic standards of AMI for 28 days to 2 years and differentiated as Qi deficiency and blood stagnation syndrome by TCM were studied. 0.5 g Chinese medicine composition prepared by the method of EXAMPLE 1 (Coded as QSYQ) was administrated half an hour after meal, 3 times per day.
# There were 19 questions in the Seattle angina questionnaire (SAQ), including 5 parts: physical limitation (PL), anginal stability (AS), anginal frequency (AF), treatment satisfaction (TS) and disease perception (DP). After being given necessary explanation by doctors, the questions were answered independently by patients.
# They included the overall survival time, angina pectoris score, TCM symptom score and life quality score, where angina pectoris score, TCM symptom score and life quality score were evaluated at randomization, in 1st, 3rd, 6th, 9th, 12th month after treatment and 18th month after follow-up.
# All evaluation results of SAQ were described during the period of observation, and Wilcoxon rank sum test was used for inter-group comparison.
# The evaluation results in the SAQ were depicted in different observations, and inter-group comparison was tested by Wilcoxon Rank-sum test.
# [1] = Follow-up, second line headed Not limited (r60)
smiles,measurement,setting,value
"CC(=O)Oc1ccccc1C(=O)O [Control group, aspirine]","SAQ 7th question, Highly satisfied: % of patients",Baseline,(20.32%)
same,"SAQ 7th question, Highly satisfied: number of patients",Baseline,304
same,"SAQ 7th question, Mostly dissatisfied: % of patients",Baseline,(4.88%)
same,"SAQ 7th question, Mostly dissatisfied: number of patients",Baseline,73
same,"SAQ 7th question, Mostly satisfied: % of patients",Baseline,(46.52%)
same,"SAQ 7th question, Mostly satisfied: number of patients",Baseline,696
same,"SAQ 7th question, Partly satisfied: % of patients",Baseline,(27.94%)
same,"SAQ 7th question, Partly satisfied: number of patients",Baseline,418
same,"SAQ Question 1-1 Mildly limited, number of patients",Baseline,30
same,"SAQ Question 1-1 Mildly limited, percent of patients",Baseline,(2.01%)
same,"SAQ Question 1-1 Moderately limited, number of patients",Baseline,13
same,"SAQ Question 1-1 Moderately limited, percent of patients",Baseline,(0.87%)
same,"SAQ Question 1-1 Not limited, number of patients",Baseline,1359
same,"SAQ Question 1-1 Not limited, percent of patients",Baseline,(90.96%)
same,"SAQ Question 1-1 Other reasons, number of patients",Baseline,4
same,"SAQ Question 1-1 Other reasons, percent of patients",Baseline,(0.27%)
same,"SAQ Question 1-1 Severely limited, number of patients",Baseline,1
same,"SAQ Question 1-1 Severely limited, percent of patients",Baseline,(0.07%)
same,"SAQ Question 1-1 Slightly limited, number of patients",Baseline,87
same,"SAQ Question 1-1 Slightly limited, percent of patients",Baseline,(5.82%)
same,"SAQ Question 1-2 Mildly limited, number of patients",Baseline,42
same,"SAQ Question 1-2 Mildly limited, percent of patients",Baseline,(2.81%)
same,"SAQ Question 1-2 Moderately limited, number of patients",Baseline,13
same,"SAQ Question 1-2 Moderately limited, percent of patients",Baseline,(0.87%)
same,"SAQ Question 1-2 Not limited, number of patients",Baseline,1319
same,"SAQ Question 1-2 Not limited, percent of patients",Baseline,(88.29%)
same,"SAQ Question 1-2 Other reasons, number of patients",Baseline,5
same,"SAQ Question 1-2 Other reasons, percent of patients",Baseline,(0.33%)
same,"SAQ Question 1-2 Severely limited, number of patients",Baseline,2
same,"SAQ Question 1-2 Severely limited, percent of patients",Baseline,(0.13%)
same,"SAQ Question 1-2 Slightly limited, percent of patients",Baseline,(7.56%)
same,"SAQ Question 1-6: Mildly limited, patients (%)",Baseline,(20.58%)
same,"SAQ Question 1-6: Moderately limited, patients (%)",Baseline,(18.43%)
same,"SAQ Question 1-6: Not limited, patients (%)",Baseline,(25.02%)
same,"SAQ Question 1-6: Other reasons, patients (%)",Baseline,(1.01%)
same,"SAQ Question 1-6: Severely limited, patients (%)",Baseline,(6.99%)
same,"SAQ Question 1-6: Slightly limited, patients (%)",Baseline,(27.98%)
same,"SAQ Question 1-7: Mildly limited, patients (%)",Baseline,(25.03%)
same,"SAQ Question 1-7: Moderately limited, patients (%)",Baseline,(19.44%)
same,"SAQ Question 1-7: Not limited, patients (%)",Baseline,(9.62%)
same,"SAQ Question 1-7: Other reasons, patients (%)",Baseline,(3.14%)
same,"SAQ Question 1-7: Severely limited, patients (%)",Baseline,(21.49%)
same,"SAQ Question 1-7: Slightly limited, patients (%)",Baseline,(21.28%)
same,"SAQ Question 1-8: Mildly limited, patients (%)",Baseline,(24.40%)
same,"SAQ Question 1-8: Moderately limited, patients (%)",Baseline,(22.43%)
same,"SAQ Question 1-8: Not limited, patients (%)",Baseline,(7.43%)
same,"SAQ Question 1-8: Other reasons, patients (%)",Baseline,(2.52%)
same,"SAQ Question 1-8: Severely limited, patients (%)",Baseline,(26.45%)
same,"SAQ Question 1-8: Slightly limited, patients (%)",Baseline,(16.77%)
same,"8th question: Dissatisfied, patients (%)",Follow-up,(0.07%)
same,"8th question: Highly satisfied, patients (%)",Follow-up,(28.16%)
same,"8th question: Mostly dissatisfied, patients (%)",Follow-up,(0.64%)
same,"8th question: Mostly satisfied, patients (%)",Follow-up,(60.27%)
same,"8th question: Partly satisfied, patients (%)",Follow-up,(10.87%)
same,"9th question: Few, patients (%)",Follow-up,(44.23%)
same,"9th question: Mild, patients (%)",Follow-up,(27.32%)
same,"9th question: Moderate, patients (%)",Follow-up,(3.87%)
same,"9th question: Severe, patients (%)",Follow-up,(0.14%)
same,"9th question: Uneffective, patients (%)",Follow-up,(24.44%)
same,"10th question: Dissatisfied, patients (%)",Follow-up,(18.11%)
same,"10th question: Highly satisfied, patients (%)",Follow-up,(9.51%)
same,"10th question: Mostly dissatisfied, patients (%)",Follow-up,(19.38%)
same,"10th question: Mostly satisfied, patients (%)",Follow-up,(32.21%)
same,"10th question: Partly satisfied, patients (%)",Follow-up,(20.79%)
same,"11th question: Continuously worried, patients (%)",Follow-up,(1.34%)
same,"11th question: No worried, patients (%)",Follow-up,(8.74%)
same,"11th question: Occasionally worried, patients (%)",Follow-up,(38.83%)
same,"11th question: Often worried, patients (%)",Follow-up,(6.84%)
same,"11th question: Seldom worried, patients (%)",Follow-up,(44.26%)
same,"SAQ 4th question, 1-2 times per week: % of patients",Follow-up,(13.17%)
same,"SAQ 4th question, 1-2 times per week: number of patients",Follow-up,186
same,"SAQ 4th question, 1-3 times per week: % of patients",Follow-up,(2.83%)
same,"SAQ 4th question, 1-3 times per week: number of patients",Follow-up,40
same,"SAQ 4th question, <1 time per week: % of patients",Follow-up,(16.08%)
same,"SAQ 4th question, <1 time per week: number of patients",Follow-up,227
same,"SAQ 4th question, Not used: % of patients",Follow-up,(66.08%)
same,"SAQ 4th question, Not used: number of patients",Follow-up,933
same,"SAQ 4th question, ≧3 times per week: % of patients",Follow-up,(1.84%)
same,"SAQ 4th question, ≧3 times per week: number of patients",Follow-up,26
same,"SAQ 4th question, ≧4 times per day: % of patients",Follow-up,(0.00%)
same,"SAQ 4th question, ≧4 times per day: number of patients",Follow-up,0
same,"SAQ 5th question, 1-2 times per week: % of patients",Follow-up,(32.86%)
same,"SAQ 5th question, 1-2 times per week: number of patients",Follow-up,465
same,"SAQ 5th question, 1-3 times per day: % of patients",Follow-up,(3.18%)
same,"SAQ 5th question, 1-3 times per day: number of patients",Follow-up,45
same,"SAQ 5th question, <1 time per week: % of patients",Follow-up,(31.24%)
same,"SAQ 5th question, <1 time per week: number of patients",Follow-up,442
same,"SAQ 5th question, No onset: % of patients",Follow-up,(7.49%)
same,"SAQ 5th question, No onset: number of patients",Follow-up,106
same,"SAQ 5th question, ≧3 times per week: % of patients",Follow-up,(25.09%)
same,"SAQ 5th question, ≧3 times per week: number of patients",Follow-up,355
same,"SAQ 5th question, ≧4 times per day: % of patients",Follow-up,(0.14%)
same,"SAQ 5th question, ≧4 times per day: number of patients",Follow-up,2
same,"SAQ 6th question, Dissatisfied: % of patients",Follow-up,(0.00%)
same,"SAQ 6th question, Dissatisfied: number of patients",Follow-up,0
same,"SAQ 6th question, Highly satisfied: % of patients",Follow-up,(28.52%)
same,"SAQ 6th question, Highly satisfied: number of patients",Follow-up,405
same,"SAQ 6th question, Mostly dissatisfied: % of patients",Follow-up,(0.63%)
same,"SAQ 6th question, Mostly dissatisfied: number of patients",Follow-up,9
same,"SAQ 6th question, Mostly satisfied: % of patients",Follow-up,(62.25%)
same,"SAQ 6th question, Mostly satisfied: number of patients",Follow-up,884
same,"SAQ 6th question, Partly satisfied: % of patients",Follow-up,(8.59%)
same,"SAQ 6th question, Partly satisfied: number of patients",Follow-up,122
same,"SAQ 7th question, Dissatisfied: % of patients",Follow-up,(0.00%)
same,"SAQ 7th question, Dissatisfied: number of patients",Follow-up,0
same,"SAQ 7th question, Highly satisfied: % of patients",Follow-up,(30.75%)
same,"SAQ 7th question, Highly satisfied: number of patients",Follow-up,436
same,"SAQ 7th question, Mostly dissatisfied: % of patients",Follow-up,(0.28%)
same,"SAQ 7th question, Mostly dissatisfied: number of patients",Follow-up,4
same,"SAQ 7th question, Mostly satisfied: % of patients",Follow-up,(62.13%)
same,"SAQ 7th question, Mostly satisfied: number of patients",Follow-up,881
same,"SAQ 7th question, Partly satisfied: % of patients",Follow-up,(6.84%)
same,"SAQ 7th question, Partly satisfied: number of patients",Follow-up,97
same,"SAQ Question 1-1 Mildly limited, number of patients",Follow-up,6
same,"SAQ Question 1-1 Mildly limited, percent of patients",Follow-up,(0.43%)
same,"SAQ Question 1-1 Moderately limited, number of patients",Follow-up,1
same,"SAQ Question 1-1 Moderately limited, percent of patients",Follow-up,(0.07%)
same,"SAQ Question 1-1 Not limited, number of patients",Follow-up,1352
same,"SAQ Question 1-1 Not limited, percent of patients",Follow-up,(95.95%)
same,"SAQ Question 1-1 Other reasons, number of patients",Follow-up,5
same,"SAQ Question 1-1 Other reasons, percent of patients",Follow-up,(0.35%)
same,"SAQ Question 1-1 Severely limited, number of patients",Follow-up,1
same,"SAQ Question 1-1 Severely limited, percent of patients",Follow-up,(0.07%)
same,"SAQ Question 1-1 Slightly limited, number of patients",Follow-up,44
same,"SAQ Question 1-1 Slightly limited, percent of patients",Follow-up,(3.12%)
same,"SAQ Question 1-2 Mildly limited, number of patients",Follow-up,8
same,"SAQ Question 1-2 Mildly limited, percent of patients",Follow-up,(0.57%)
same,"SAQ Question 1-2 Moderately limited, number of patients",Follow-up,0
same,"SAQ Question 1-2 Moderately limited, percent of patients",Follow-up,(0.00%)
same,"SAQ Question 1-2 Not limited, number of patients",Follow-up,1336
same,"SAQ Question 1-2 Not limited, percent of patients",Follow-up,(94.82%)
same,"SAQ Question 1-2 Severely limited, number of patients",Follow-up,2
same,"SAQ Question 1-2 Severely limited, percent of patients",Follow-up,(0.14%)
same,"SAQ Question 1-2 Slightly limited, number of patients",Follow-up,56
same,"SAQ Question 1-2 Slightly limited, percent of patients",Follow-up,(3.97%)
same,"SAQ Question 1-6: Mildly limited, patients (%)",Follow-up,(11.32%)
same,"SAQ Question 1-6: Moderately limited, patients (%)",Follow-up,(9.19%)
same,"SAQ Question 1-6: Not limited, patients (%)",Follow-up,(41.95%)
same,"SAQ Question 1-6: Other reasons, patients (%)",Follow-up,(0.85%)
same,"SAQ Question 1-6: Severely limited, patients (%)",Follow-up,(2.28%)
same,"SAQ Question 1-6: Slightly limited, patients (%)",Follow-up,(34.40%)
same,"SAQ Question 1-7: Mildly limited, patients (%)",Follow-up,(21.92%)
same,"SAQ Question 1-7: Moderately limited, patients (%)",Follow-up,(6.63%)
same,"SAQ Question 1-7: Not limited, patients (%)",Follow-up,(22.35%)
same,"SAQ Question 1-7: Other reasons, patients (%)",Follow-up,(2.60%)
same,"SAQ Question 1-7: Severely limited, patients (%)",Follow-up,(11.68%)
same,"SAQ Question 1-7: Slightly limited, patients (%)",Follow-up,(34.82%)
same,"SAQ Question 1-8: Mildly limited, patients (%)",Follow-up,(24.93%)
same,"SAQ Question 1-8: Moderately limited, patients (%)",Follow-up,(11.85%)
same,"SAQ Question 1-8: Not limited, patients (%)",Follow-up,(15.12%)
same,"SAQ Question 1-8: Other reasons, patients (%)",Follow-up,(3.27%)
same,"SAQ Question 1-8: Severely limited, patients (%)",Follow-up,(14.75%)
same,"SAQ Question 1-8: Slightly limited, patients (%)",Follow-up,(30.09%)
same,"SAQ Question 1-2 Not limited, number of patients",[1],7
same,"SAQ Question 1-2 Not limited, percent of patients",[1],(0.50%)
